Article PMC3740188 (Protein & cell, 2013)

Experiments:
Assay type in all cases: binding
[1] = molecular target: T1, AT cpn-β (thermosome cpn-β) (Acidianus tengchongensis, UniProt Q877H2); experiment: cryo-EM reconstruction with MDFF model; details: pH 7.5, 12 mM Mg, 50 mM KCl; 6.2/5.0 Å resolution
T1 sequence (Q877H2 1-553): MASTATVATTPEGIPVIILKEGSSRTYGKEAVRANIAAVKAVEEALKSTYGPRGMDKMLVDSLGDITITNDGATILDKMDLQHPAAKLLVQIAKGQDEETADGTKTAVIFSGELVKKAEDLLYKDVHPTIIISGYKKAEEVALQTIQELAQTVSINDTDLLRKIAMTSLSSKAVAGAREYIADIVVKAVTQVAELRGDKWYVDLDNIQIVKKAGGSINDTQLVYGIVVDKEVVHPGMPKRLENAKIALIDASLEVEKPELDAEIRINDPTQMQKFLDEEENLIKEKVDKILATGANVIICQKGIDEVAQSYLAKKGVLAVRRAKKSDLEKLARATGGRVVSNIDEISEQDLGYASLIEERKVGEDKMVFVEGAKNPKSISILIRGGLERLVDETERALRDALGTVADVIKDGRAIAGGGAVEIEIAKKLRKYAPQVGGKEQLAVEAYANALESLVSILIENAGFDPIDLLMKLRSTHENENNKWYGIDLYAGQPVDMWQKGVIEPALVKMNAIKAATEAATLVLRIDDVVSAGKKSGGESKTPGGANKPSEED

[2] = molecular target: T1, AT cpn-β (thermosome cpn-β); experiment: nucleotide-induced oligomer assembly by native PAGE; details: 2 mM nucleotide, 20 mM MgCl2, pH 7.5, 37 °C, 8 h
[3] = molecular target: T2, AT cpn-α (thermosome cpn-α) (Acidianus tengchongensis, UniProt Q877H0); experiment: as above; details: 2 mM nucleotide, 20 mM MgCl2, pH 7.5, 37 °C, 8 h
T2 sequence (Q877H0 1-563): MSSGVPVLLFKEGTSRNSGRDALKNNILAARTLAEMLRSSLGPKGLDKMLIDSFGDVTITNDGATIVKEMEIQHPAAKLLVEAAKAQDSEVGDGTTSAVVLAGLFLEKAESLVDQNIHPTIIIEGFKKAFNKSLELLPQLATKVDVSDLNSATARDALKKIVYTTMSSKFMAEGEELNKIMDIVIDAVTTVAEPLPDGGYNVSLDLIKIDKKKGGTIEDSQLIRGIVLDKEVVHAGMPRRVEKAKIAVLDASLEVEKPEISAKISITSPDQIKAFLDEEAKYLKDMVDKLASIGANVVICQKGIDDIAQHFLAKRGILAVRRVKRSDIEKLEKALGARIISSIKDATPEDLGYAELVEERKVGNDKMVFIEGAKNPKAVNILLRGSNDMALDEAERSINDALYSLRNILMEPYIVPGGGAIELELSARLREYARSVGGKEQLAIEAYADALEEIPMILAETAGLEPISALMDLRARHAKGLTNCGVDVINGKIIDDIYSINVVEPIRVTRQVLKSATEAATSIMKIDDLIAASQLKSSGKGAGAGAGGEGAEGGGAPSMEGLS

[4] = molecular target: T1, AT cpn-β (thermosome cpn-β); experiment: heating […] min then native PAGE of oligomer dissociation; details: ADP in place of ATP; pH 7.5, MgCl2
[5] = molecular target: T2, AT cpn-α (thermosome cpn-α); experiment: as above; details: ADP in place of ATP; pH 7.5, MgCl2

| SMILES | cryo-EM reconstruction with MDFF model [1] | nucleotide-induced oligomer assembly by native PAGE [2] | nucleotide-induced oligomer assembly by native PAGE [3] | Td [4] | Td [5] |
| --- | --- | --- | --- | --- | --- |
| Nc1ncnc2c1ncn2[C@@H]1O[C@H](COP(=O)(O)OP(=O)(O)OP(=O)(O)O)[C@@H](O)[C@H]1O [ATP] | cryoEM reconstructions of cpn-β in the apo or ATP-binding state |  |  |  |  |
| Nc1nc2c(ncn2[C@@H]2O[C@H](COP(=O)(O)OP(=O)(O)OP(=O)(O)O)[C@@H](O)[C@H]2O)c(=O)[nH]1 [GTP] |  | even GTP could induce the assembly of thermosomes | even GTP could induce the assembly of thermosomes |  |  |
| Nc1ncnc2c1ncn2[C@@H]1O[C@H](COP(=O)(O)OP(=O)(O)O)[C@@H](O)[C@H]1O [ADP] |  |  |  | ADP binding also increased the thermal stability of cpn-α and cpn-β | ADP binding also increased the thermal stability of cpn-α and cpn-β |
| Nc1ncnc2c1ncn2[C@@H]1O[C@H](COP(=O)(O)OP(=O)(O)NP(=O)(O)O)[C@@H](O)[C@H]1O [AMP-PNP] |  | all nucleotides could efficiently induce the assembly of thermosomes for both cpn-α | all nucleotides could efficiently induce the assembly of thermosomes for both cpn-α |  |  |
